Test results reported in patent publication US11629171B2, “Beta-hairpin peptidomimetics” (POLYPHOR AG, priority 2017, dated 2023).
Values after ≈ are worked out from the molar mass of the structure shown. Where a SMILES comes first, the peptide text is derived from it. Bridges are numbered along the chain shown (N, C = ends). Roman numbers before positions name the chains, in order. [ ]: non-standard residue; d: D form. NMeDab = CN[C@@H](CCN)C(=O)O; dDab = NCC[C@@H](N)C(=O)O; Dab = NCC[C@H](N)C(=O)O; Abu = CC[C@H](N)C(=O)O; Dap = NC[C@H](N)C(=O)O

Columns and labels:
[1] = test system: Acinetobacter baumannii DSM 30008; type: cell-based; details: DSM 30008
Method in brief: (§1)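 Visible-growth endpoint after 18-20 h at 35° C defines the MIC (μg/mL). Setup: CLSI broth microdilution, MH-II cation-adjusted broth with P-80 at 0.002% final, inoculum of approximately 10^6 CFU/mL, two-fold serial peptide dilutions.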

[2] = test system: Klebsiella pneumoniae SSI #3010; type: cell-based; details: SSI #3010
Method in brief: as §1

[3] = test system: Klebsiella pneumoniae 968733; type: cell-based; details: 968733
Method in brief: as §1

[4] = test system: Enterobacter cloacae 848840; type: cell-based; details: 848840
Method in brief: as §1

[5] = test system: Escherichia coli 926415; type: cell-based; details: 926415
Method in brief: as §1

[6] = test system: Acinetobacter baumannii 872842; type: cell-based; details: 872842
Method in brief: as §1

[7] = test system: Escherichia coli ATCC 25922; type: cell-based; details: ATCC 25922
Method in brief: as §1

[8] = test system: Pseudomonas aeruginosa ATCC 27853; type: cell-based; details: ATCC 27853
Method in brief: as §1

[9] = test system: male ICR mice; assay: Tolerability in a mouse model (Maximum Tolerated Dose assay); type: in vivo; details: 2 × 40 mg/kg s.c. at a 12-hr interval, groups of 3
Method in brief: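 Groups of 3 male ICR mice weighing 23±3 g received two subcutaneous doses, 12 h apart, of 30 or 40 mg/kg in saline adjusted to pH 6.5-7.6. Observation for 30 min after each dose covered autonomic effects and acute toxicity, including death.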

[10] = test system: human red blood cells (hRBC); assay: Hemolysis; type: cell-based; details: red cells of human, 1 h, 200
Method in brief: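 Hemoglobin release from PBS-washed hRBC at 20% (v/v), incubated 1 h at 37° C with peptides at 200 μg/mL, is measured at 540 nm. Values are blank corrected and given as a fraction of Triton X-100 lysis × 100%.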

| SMILES | Acinetobacter baumannii DSM 30008 MIC [1] [µg/mL] | Klebsiella pneumoniae SSI #3010 MIC [2] [µg/mL] | MIC [3] [µg/mL] | MIC [4] [µg/mL] | MIC [5] [µg/mL] | MIC [6] [µg/mL] | Escherichia coli ATCC 25922 MIC [7] [µg/mL] | Pseudomonas aeruginosa ATCC 27853 MIC [8] [µg/mL] | Mortality and dose [9] | Hemolysis at 200 μg/mL [10] [%] |
| --- | --- | --- | --- | --- | --- | --- | --- | --- | --- | --- |
| CC(=O)N[C@H](C(=O)N[C@H]1CSSC[C@@H](C(=O)N[C@@H](CO)C(N)=O)NC(=O)[C@H](C(C)C)NC(=O)[C@H](CO)NC(=O)[C@H](Cc2c[nH]c3ccccc23)NC(=O)[C@H](CO)NC(=O)[C@@H](CCN)NC(=O)[C@H](CCC(=O)N(C)[C@@H](CCN)C(=O)N[C@H](C(=O)N[C@@H](CN)C(=O)N[C@H]2CCNC(=O)[C@H]([C@@H](C)O)NC(=O)[C@H](CCN)NC(=O)[C@H](CCN)NC(=O)[C@H](CC(C)C)NC(=O)[C@@H](CC(C)C)NC(=O)[C@H](CCN)NC2=O)[C@@H](C)O)NC(=O)[C@H](CCN)NC(=O)[C@H](Cc2ccc(O)cc2)NC1=O)C(C)C [Ex. 311] (I: Ac-VCY[Dab]E[dDab]SWSVCS-NH2 / II: [NMeDab]T[Dap][Dab][Dab][dL]L[Dab][Dab]T; disulfide I:2-I:11; amide I:5-II:N; lactam II:4-II:C) | 0.0625 | 0.0625 | 0.125 (≈ 0.0518 µM) | 0.125 (≈ 0.0518 µM) | 0.25 (≈ 0.104 µM) | 0.125 (≈ 0.0518 µM) | 0.0625 | 0.25 | 0/3 died at 2 × 40 mg/kg | <1 |
| CC(=O)N[C@H](C(=O)N[C@H]1CSSC[C@@H](C(=O)N[C@@H](CO)C(N)=O)NC(=O)[C@H](C(C)C)NC(=O)[C@H](CO)NC(=O)[C@H](Cc2c[nH]c3ccccc23)NC(=O)[C@H](CO)NC(=O)[C@@H](CCN)NC(=O)[C@H](CCC(=O)N[C@@H](CCN)C(=O)N[C@H](C(=O)N[C@@H](CN)C(=O)N[C@H]2CCNC(=O)[C@H]([C@@H](C)O)NC(=O)[C@H](CCN)NC(=O)[C@H](CCN)NC(=O)[C@H]([C@@H](C)O)NC(=O)[C@@H](CC(C)C)NC(=O)[C@H](CCN)NC2=O)[C@@H](C)O)NC(=O)[C@H](CCN)NC(=O)[C@H](Cc2ccc(O)cc2)NC1=O)C(C)C [Ex. 331] (I: Ac-VCY[Dab]E[dDab]SWSVCS-NH2 / II: [Dab]T[Dap][Dab][Dab][dL]T[Dab][Dab]T; disulfide I:2-I:11; amide I:5-II:N; lactam II:4-II:C) | 0.125 | 0.0625 | 0.5 (≈ 0.209 µM) | 0.25 (≈ 0.105 µM) | 0.5 (≈ 0.209 µM) | 0.25 (≈ 0.105 µM) | 0.0625 | 0.125 | 0/3 died at 2 × 40 mg/kg | <1 |
| CC[C@@H]1NC(=O)[C@@H](CC(C)C)NC(=O)[C@H](CCN)NC(=O)[C@@H](NC(=O)[C@H](CCN)NC(=O)[C@@H](NC(=O)[C@H](CCN)NC(=O)CC[C@@H]2NC(=O)[C@H](CCN)NC(=O)[C@H](Cc3ccc(O)cc3)NC(=O)[C@@H](NC(=O)[C@@H](NC(C)=O)C(C)C)CSSC[C@@H](C(=O)N[C@@H](CO)C(N)=O)NC(=O)[C@H](C(C)C)NC(=O)[C@H](CO)NC(=O)[C@H](Cc3c[nH]c4ccccc34)NC(=O)[C@H](CO)NC(=O)[C@@H](CCN)NC2=O)[C@@H](C)O)CCNC(=O)[C@H]([C@@H](C)O)NC(=O)[C@H](CCN)NC(=O)[C@H](CCN)NC1=O [Ex. 332] (I: Ac-VCY[Dab]E[dDab]SWSVCS-NH2 / II: [Dab]T[Dab][Dab][Dab][dL][Abu][Dab][Dab]T; disulfide I:2-I:11; amide I:5-II:N; lactam II:4-II:C) | 0.0625 | 0.0625 | 0.5 (≈ 0.21 µM) | 0.125 (≈ 0.0524 µM) | 0.25 (≈ 0.105 µM) | 0.25 (≈ 0.105 µM) | 0.03125 | 0.25 | 0/3 died at 2 × 40 mg/kg | 2 |
| CC(=O)N[C@H](C(=O)N[C@H]1CSSC[C@@H](C(=O)N[C@@H](CO)C(N)=O)NC(=O)[C@H](C(C)C)NC(=O)[C@H](CO)NC(=O)[C@H](Cc2c[nH]c3ccccc23)NC(=O)[C@H](CO)NC(=O)[C@@H](CCN)NC(=O)[C@H](CCC(=O)N[C@@H](CCN)C(=O)N[C@H](C(=O)N[C@@H](CCN)C(=O)N[C@H]2CCNC(=O)[C@H]([C@@H](C)O)NC(=O)[C@H](CCN)NC(=O)[C@H](CCN)NC(=O)[C@H]([C@@H](C)O)NC(=O)[C@@H](CC(C)C)NC(=O)[C@H](CCN)NC2=O)[C@@H](C)O)NC(=O)[C@H](CCN)NC(=O)[C@H](Cc2ccc(O)cc2)NC1=O)C(C)C [Ex. 333] (I: Ac-VCY[Dab]E[dDab]SWSVCS-NH2 / II: [Dab]T[Dab][Dab][Dab][dL]T[Dab][Dab]T; disulfide I:2-I:11; amide I:5-II:N; lactam II:4-II:C) | 0.125 | 0.0625 | 1 (≈ 0.417 µM) | 0.25 (≈ 0.104 µM) | 0.5 (≈ 0.208 µM) | 0.5 (≈ 0.208 µM) | 0.0625 | 0.25 | 0/3 died at 2 × 40 mg/kg | 2 |
| CC(=O)N[C@H](C(=O)N[C@H]1CSSC[C@@H](C(=O)N[C@@H](CO)C(N)=O)NC(=O)[C@H](C(C)C)NC(=O)[C@H](CO)NC(=O)[C@H](Cc2c[nH]c3ccccc23)NC(=O)[C@H](CO)NC(=O)[C@@H](CCN)NC(=O)[C@H](CCC(=O)N[C@@H](CCN)C(=O)N[C@H](C(=O)N[C@@H](CCN)C(=O)N[C@H]2CCNC(=O)[C@H]([C@@H](C)O)NC(=O)[C@H](CCN)NC(=O)[C@H](CCN)NC(=O)[C@H](CC(C)C)NC(=O)[C@@H](CC(C)C)NC(=O)[C@H](CCN)NC2=O)[C@@H](C)O)NC(=O)[C@H](CCN)NC(=O)[C@H](Cc2ccc(O)cc2)NC1=O)C(C)C [Ex. 334] (I: Ac-VCY[Dab]E[dDab]SWSVCS-NH2 / II: [Dab]T[Dab][Dab][Dab][dL]L[Dab][Dab]T; disulfide I:2-I:11; amide I:5-II:N; lactam II:4-II:C) | 0.03125 | 0.0625 | 0.25 (≈ 0.104 µM) | 0.125 (≈ 0.0518 µM) | 0.25 (≈ 0.104 µM) | 0.125 (≈ 0.0518 µM) | 0.03125 | 0.125 | 0/3 died at 2 × 40 mg/kg | <1 |
| CC(=O)N[C@H](C(=O)N[C@H]1CSSC[C@@H](C(=O)N[C@@H](CO)C(N)=O)NC(=O)[C@H](C(C)C)NC(=O)CNC(=O)[C@H](Cc2c[nH]c3ccccc23)NC(=O)[C@H](CO)NC(=O)[C@@H](CCN)NC(=O)[C@H](CCC(=O)N[C@@H](CCN)C(=O)N[C@H](C(=O)N[C@@H](CN)C(=O)N[C@H]2CCNC(=O)[C@H]([C@@H](C)O)NC(=O)[C@H](CCN)NC(=O)[C@H](CCN)NC(=O)[C@H](CC(C)C)NC(=O)[C@@H](CC(C)C)NC(=O)[C@H](CCN)NC2=O)[C@@H](C)O)NC(=O)[C@H](CCN)NC(=O)[C@H](Cc2ccc(O)cc2)NC1=O)C(C)C [Ex. 335] (I: Ac-VCY[Dab]E[dDab]SWGVCS-NH2 / II: [Dab]T[Dap][Dab][Dab][dL]L[Dab][Dab]T; disulfide I:2-I:11; amide I:5-II:N; lactam II:4-II:C) | 0.0625 | 0.0625 | 0.5 (≈ 0.211 µM) | 0.25 (≈ 0.106 µM) | 0.25 (≈ 0.106 µM) | 0.25 (≈ 0.106 µM) | 0.0625 | 0.125 | 0/3 died at 2 × 40 mg/kg | <1 |
